Patent US7384966B2, “2-arylbenzothiazole derivatives” (Pharminxo Limited, priority 2004, dated 2008)
Entries after “also recorded” stand apart in the source; their conditions may differ.

Columns and labels:
[1] = tested on: MDA 468; experiment: MTT assay, 3 day exposure, MDA 468; assay type: cell-based; settings: Homo sapiens, 72 h; MDA 468 (breast), MTT, 3 day exposure, triplicate; read-out: GI50 values in cell lines, MDA 468
Method: (§1) A range of compounds were evaluated in MTT assays following 3 day exposure against a panel of two human breast cancer cell lines MCF-7 (ER+) and MDA 468 (ER−), and two colon cancer cell lines KM12 and HCC 2998. In general the breast cell lines were more sensitive to the agents and the MDA 468 line the most sensitive of the four (Table 2). The benchmark active compound was 5-fluoro-2-(3,4-dimethoxyphenyl)benzothiazole (1) with GI50 values<0.1 nM against the two breast cell lines. […] The most interesting series of compounds were those combining a 5-fluoro group with two oxygenated substituents in the 3′,4′-positions where minor, seemingly conservative, structural changes were associated with a dramatic variations in activity (when compared to 1). […] In summary, this in vitro screen led to the identification of the fluorinated 2-(3,4-dimethoxyphenyl)benzothiazole structure as a novel antitumor pharmacophore with the 5-fluoro analogue (1) astride a pinnacle of activity.
(§2) The assays/methods used to generate the results referred to herein are well known to those skilled in the art and therefore it has not been necessary to describe them in detail.

[2] = tested on: NCI in vitro 60 human cancer cell panel; experiment: NCI in vitro 60 human cancer cell panel, sulforhodamine B assay; assay type: cell-based; settings: NCI mean GI50 graphs, FIGS. 1 and 8 to 12
Method: Results from the more extensive NCI in vitro 60 human cancer cell panel^15 corroborated the results (above). The mean GI50 values across the range of compounds (above), including the two series of esters (11-21) are an unremarkable 10-100 μM (data not shown); however, these values disguise significant cell selectivity. […] Full NCI mean GI50 graphs for compounds (1,2,3,4,101,102) are included herein as FIGS. 1 and 8 to 12.
The results shown on FIG. 1 were generated by treating the cells with an active agent for 48 hours, in this case compound 1, before determination of viability by sulforhodamine B assay.

[3] = tested on: MCF-7, MDA 468, KM12 and HCC 2998; experiment: MTT assay, panel of four cell lines, results in words; assay type: cell-based, human; settings: compared to compound 1
Method: as §1

[4] = tested on: MCF-7; experiment: Growth inhibition alone or in combination with resveratrol, MCF-7; assay type: cell-based, human; settings: MCF-7 (cyp lal-inducible), resveratrol 51 μM
Method: The results shown in FIGS. 3a and 3b were generated using MCF-7 (FIG. 3a) and HCC 2998 (FIG. 3b) cells. The said cells were treated with DF 203 or compound 1, alone or in combination with resveratrol (51 μM) an inhibitor of cyp lal activity. It can be seen that in MCF-7 cells (cyp lal-inducible) the activity of DF 203 was abolished.

[5] = tested on: HCC 2998; experiment: MTT assay, 3 day exposure, HCC 2998; assay type: cell-based; settings: Homo sapiens, HCC 2998, 72 h, HCC 2998 (colon), MTT, 3 day exposure, triplicate; read-out: GI50 values in cell lines, HCC 2998
Method: as §1, §2

[6] = tested on: KM 12; experiment: MTT assay, 3 day exposure, KM12; assay type: cell-based, human; settings: Homo sapiens, KM12, 72 h, KM 12 (colon), MTT, 3 day exposure, triplicate; read-out: GI50 values in cell lines, KM 12
Method: as §1, §2

[7] = tested on: MCF-7; experiment: MTT assay, 3 day exposure, MCF-7; assay type: cell-based; settings: Homo sapiens, MCF7, 72 h, MCF-7 (breast), MTT, 3 day exposure, triplicate; read-out: GI50 values in cell lines, MCF-7
Method: as §1, §2

[8] = tested on: MCF-7; settings: aminophenyl benzothiazole sensitive cells with inducible cyp lal; Hose et al 2003; cited from earlier work

| melting point [°C] | GI50 [5] [nM] | GI50 [7] [nM] | Structure (SMILES) | GI50 [1] [nM] | sensitivity of cancer cell panels / antitumour activity in vitro [2] | growth inhibitory potency in words [3] | effect of resveratrol on growth inhibitory activity [4] | effect of resveratrol on growth inhibitory activity ([4]; listed as DF 203) | GI50 [6] [nM] | effect of resveratrol on activity [8] |
| --- | --- | --- | --- | --- | --- | --- | --- | --- | --- | --- |
| 141 to 143 |  |  | COc1ccc(-c2nc3ccccc3s2)cc1OC [Compound 4, 2-(3,4-Dimethoxyphenyl)benzothiazole] | 530 | no cancer cells to be particularly sensitive; also recorded: attenuated pattern of activity | retained sub-micromolar activity against MDA 468 |  |  |  |  |
|  | > 100000 | < 0.1 | Cc1cc(-c2nc3ccccc3s2)ccc1N [Compound 101, 2-(4-amino-3-methylphenyl)benzothiazole, reference compound] | < 0.1 | ovarian and breast cancer cells are particularly sensitive |  | block the activity | abolished | > 100000 |  |
|  | > 100000 | < 0.1 | Cc1cc(-c2nc3cc(F)ccc3s2)ccc1N [Compound 102, 2-(4-amino-3-methylphenyl)-5-fluorobenzothiazole, reference compound] | < 0.1 | non-small cell lung, ovarian, renal and breast cancel cells to be particularly sensitive |  |  |  | > 100000 | block the activity |
| 153 to 155 | 6210 | 62 | COc1ccc(-c2nc3ccc(F)cc3s2)cc1OC [Compound 3, 6-Fluoro-2-(3,4-dimethoxyphenyl)benzothiazole] | 5 | reduced activity against cancer cells when compared to compound 1; also recorded: demonstrates antitumour activity in vitro; also recorded: potent (but attenuated compared to 1), activity in the colon and NSCL sub-panels | retained nanomolar growth inhibitory potency against one or more of the cell lines |  |  | 24100 |  |
